Experimental data as given in patent US7368453B2, “Quinazolinone compounds with reduced bioaccumulation” (Chiron Corporation, priority 2003, dated 2008).
Read-outs that look alike come from different tables or passages of the source.

Assay: Tissue half-life (t1/2) and Cmax in plasma, brain, kidney and liver after oral administration to CD-1 mice
Format: in vivo, mouse
Details: for half-life: male, mouse
Protocol: In vivo studies were conducted to observe the effect of the compounds of the invention in the subject animal. Male CD-1 mice, body weight of 20 grams at arrival, were used in these studies. Mice were given 30 mg/kg of compound in HPMC/Tween solution or suspension via oral gavage. Plasma, brain, and liver samples were collected at time periods of 1, 2, 4, 8, and 24 hours post dosing. One mouse was used per time point. Thus, a total of 5 mice were used for each compound tested. For sample collection, mice were euthanized with CO2. Blood samples were taken by cardiac puncture and kept on ice. Brain and liver samples were collected immediately after bleeding and the samples were kept on dry ice. For calculation of tissue half-lives (t1/2s), the terminal rate constant k was estimated by the absolute value of the slope of a log-linear regression of the terminal phase of the tissue concentration-time profile. The tissue half-life t1/2 is ln(2)/k.
The following table includes t1/2 data for plasma, brain, kidney, and liver obtained after oral administration.
Tissue Half-Life Data for Various Quinazolinone Compounds (PO)

`C[C@@H]1[C@@H](/N=C(/Nc2ccc3c(=O)n(CCc4ccc(Cl)cc4Cl)cnc3c2)N2CC(O)C2)C[C@@H]2C[C@H]1C2(C)C` [Example 337, N-{3-[2-(2,4-dichlorophenyl)ethyl]-4-oxo-3,4-dihydro-7-quinazolinyl}-3-hydroxy-N′-[(1R,2S,3S,5S)-2,6,6-trimethylbicyclo[3.1.1]hept-3-yl]-1-azetidinecarboximidamide] showed a half-life (kidney t1/2, 30 mg/kg oral gavage (PO), read-out: Half-Lives (h) Kidney (converted)) of 5.1 h, a half-life (liver t1/2, 30 mg/kg oral gavage (PO), read-out: Half-Lives (h) Liver (converted)) of 4.6 h and a half-life (plasma t1/2, 30 mg/kg oral gavage (PO), read-out: Half-Lives (h) Plasma (converted)) of 18.9 h.

With “(3S)-N-{3-[2-(4-chlorophenyl)ethyl]-4-oxo-2-piperidin-3-yl-3,4-dihydroquinazolin-7-yl}-3-methyl-5-oxo-N′-[(1S,2S,3S,5R)-2,6,6-trimethylbicyclo[3.1.1]hept-3-yl]piperazine-1-carboximdamide [Example 241]” the “Half-Lives (h) Brain” value (brain t1/2, 30 mg/kg oral gavage (PO)) was 51 h, the “Half-Lives (h) Liver” value (liver t1/2, 30 mg/kg oral gavage (PO)) was 17 h and the “Half-Lives (h) Plasma” value (plasma t1/2, 30 mg/kg oral gavage (PO)) was 21 h.
